Where only a bound is given, the exact number is not on record here.

In experiment [1] the test system is LPA-induced histamine release. In words: LPA-induced histamine release test in mouse. Format: in vivo. Conditions: male CD1 mice; oral dose of 10 mg/kg; LPA 300 μg/mouse via tail vein 4 hours after administration; blood 2 minutes after LPA; read-out: efficacy rate (rate of individuals which showed the inhibition rate of 80% or more of plasma histamine). The method, then:
LPA-Induced Histamine Release Test in Mouse
LPA-induced histamine release test in mouse was carried out according to a method by Swaney et al. (The Journal of Pharmacology and Experimental Therapeutics, 336 (2011), pages 693-700). The test compound was suspended in 0.5% methylcellulose solution (133-14255, Wako), and orally administered to male CD1 mice (body weight: 30 to 40 g, supplied by Charles River Laboratories Japan) at a dose of 10 mL/kg. 4 hours after administration, LPA (857130P, Avanti) dissolved in a 0.1% BSA-containing PBS was administered via the tail vein (300 μg/mouse). Immediately, the mouse was anesthetized with isoflurane, and blood was collected via a vein 2 minutes after the administration of LPA. The blood was put into a test tube containing EDTA, and centrifuged at 4° C., 2,000×g, for 10 minutes to obtain the plasma.
The histamine concentration in the plasma was measured by EIA kit (62HTMPEB, Cisbio Bioassays).

The target of a further experiment is T1, human LPA1 receptor (Homo sapiens, UniProt Q92633).
T1 construct: purchased ChanTest A324; host or cells: RH 7777 cells (recombinant expression; membrane fraction)
T1 sequence (Q92633 whole entry): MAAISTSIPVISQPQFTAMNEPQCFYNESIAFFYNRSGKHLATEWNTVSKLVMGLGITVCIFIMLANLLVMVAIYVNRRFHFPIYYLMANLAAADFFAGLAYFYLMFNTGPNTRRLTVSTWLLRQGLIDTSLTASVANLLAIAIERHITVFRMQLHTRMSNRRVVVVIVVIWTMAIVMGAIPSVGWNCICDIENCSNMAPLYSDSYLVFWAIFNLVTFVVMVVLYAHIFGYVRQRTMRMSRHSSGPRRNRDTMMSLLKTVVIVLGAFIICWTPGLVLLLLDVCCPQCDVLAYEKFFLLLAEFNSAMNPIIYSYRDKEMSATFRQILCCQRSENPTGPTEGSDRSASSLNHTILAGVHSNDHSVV
In words: Binding test of GTPγS to LPA1 receptor. The settings on record: membrane fraction of RH 7777 cells expressed with human LPA1 receptor; LPA 100 nM; read-out: IC50: concentration of the test compound which inhibits the binding of LPA1 receptor and [35S]GTPγS by 50%. Format: biochemical. The method, then: Binding test of GTPγS to LPA1 receptor
5 μg of the membrane fraction of RH 7777 cells expressed with human LPA1 receptor (A324, ChanTest) was suspended in a reaction buffer (20 mM HEPES, 100 mM NaCl, 10 mM MgCl2, 10 μM GDP, 5 μg saponin, 0.2% BSA, 0.1 nM [^35S]GTPγS (NEG030X, Perkin Elmer), pH 7.4), and the test compound dissolved in DMSO in various concentrations was added. After preincubation at 30° C. for 15 minutes, LPA (L7260, Sigma, the final concentration of 100 nM) was added, and the suspension was incubated at 30° C. for 30 minutes. The membrane fraction was collected onto a glass fiber filter (GF/B, Whatman) by using a cell harvester (M30, Brandel), and washed with a 10 mM phosphate buffer (pH 7.4). The radioactivity of the membrane fraction was measured using a liquid scintillation analyzer (2900TR, Packard) and the concentration of the test compound which inhibits the binding of LPA1 receptor and [^35S]GTPγS by 50%, (1050) was determined by non-linear regression analysis using EXSAS (version 7.6.0, Arm Systex).
For orientation: GTPγS resists hydrolysis and so accumulates on activated G proteins.

Experiment [2] has as its system A2058 human melanoma cells. In words: Cell migration test (LPA-induced, Chemo-Tx). Format: cell-based. Conditions: LPA 100 nM, 3 hours, read-out: IC50: concentration of the test compound which inhibits the cell migration activity of LPA by 50%. A digest of the protocol:
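A2058 cells, serum-starved 24 h, pretreated 15 min at 37° C with compound (0.5% DMSO final). Migration over 3 h at 37° C through fibronectin-coated filters toward 100 nM LPA (final). Migrated cells stained, absorbance at 570 nm; IC50 from non-linear regression.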

For `C[C@@H](OC(=O)Nc1cc(Cl)sc1-c1ccc(-c2ccc(C3(C(=O)O)CC3)cc2)cc1)c1ccccc1Cl` [I-52, (R)-1-{4′-[5-Chloro-3-({[1-(2-chlorophenyl)ethoxy]carbonyl}amino)thiophen-2-yl]-[1,1′-biphenyl]-4-yl}cyclopropanecarboxylic acid], in experiment [1], the responders at 10 mg/kg is ≥ 50%. Also, the IC50 (at human LPA1 receptor; in experiment [2]) was ≤ 200 nM in each case.

As for `C[C@@H](OC(=O)Nc1cc(Cl)sc1-c1ccc(-c2ccc(C3(C(=O)O)CC3)cc2)cc1)c1ccc(Cl)cc1` [I-56, (R)-1-{4′-[5-Chloro-3-({[1-(4-chlorophenyl)ethoxy]carbonyl}amino)thiophen-2-yl]-[1,1′-biphenyl]-4-yl}cyclopropanecarboxylic acid], in experiment [1], the responders at 10 mg/kg is ≥ 50%. Also, the IC50 (on human LPA1 receptor; in experiment [2]) was ≤ 200 nM each time.

Take `Cc1ccccc1[C@@H](C)OC(=O)Nc1cc(Cl)sc1-c1ccc(-c2ccc(C3(C(=O)O)CC3)cc2)cc1` [I-60, (R)-1-{4′-[5-Chloro-3-({[1-(o-tolyl)ethoxy]carbonyl}amino)thiophen-2-yl]-[1,1′-biphenyl]-4-yl}cyclopropanecarboxylic acid]: in experiment [1], the responders at 10 mg/kg was ≥ 50%. For the same molecule, the IC50 (on human LPA1 receptor; in experiment [2]) was ≤ 200 nM in each case.

As to `C[C@@H](OC(=O)Nc1cc(F)sc1-c1ccc(-c2ccc(C3(C(=O)O)CC3)cc2)cc1)c1ccccc1` [I-100, (R)-1-[4′-(5-Fluoro-3-{[(1-phenylethoxy)carbonyl]amino}thiophen-2-yl)-[1,1′-biphenyl]-4-yl]cyclopropanecarboxylic acid], the responders at 10 mg/kg in experiment [1] was ≥ 50%. In addition, the IC50 (on human LPA1 receptor; in experiment [2]) was ≤ 200 nM throughout.

As to `C[C@@H](OC(=O)Nc1cc(F)sc1-c1ccc(-c2ccc(C3(C(=O)O)CC3)cc2)cc1)c1ccccc1F` [I-104, (R)-1-{4′-[5-Fluoro-3-({[1-(2-fluorophenyl)ethoxy]carbonyl}amino)thiophen-2-yl]-[1,1′-biphenyl]-4-yl}cyclopropanecarboxylic acid], the responders at 10 mg/kg in experiment [1] was ≥ 50%. Also, the IC50 (on human LPA1 receptor; in experiment [2]) was ≤ 200 nM in each case.

For the molecule `C[C@@H](OC(=O)Nc1cc(F)sc1-c1ccc(-c2ccc(C3(C(=O)O)CC3)cc2)cc1)c1ccc(F)cc1` [I-112, (R)-1-{4′-[5-Fluoro-3-({[1-(4-fluorophenyl)ethoxy]carbonyl}amino)thiophen-2-yl]-[1,1′-biphenyl]-4-yl}cyclopropanecarboxylic acid], in experiment [1], the responders at 10 mg/kg was ≥ 50%. In addition, the IC50 (on human LPA1 receptor; in experiment [2]) was ≤ 200 nM throughout.

For `C[C@@H](OC(=O)Nc1cc(F)sc1-c1ccc(-c2ccc(C3(C(=O)O)CC3)cc2)cc1)c1ccccc1Cl` [I-122, (R)-1-{4′-[3-({[1-(2-Chlorophenyl)ethoxy]carbonyl}amino)-5-fluorothiophen-2-yl]-[1,1′-biphenyl]-4-yl}cyclopropanecarboxylic acid], the responders at 10 mg/kg in experiment [1] is ≥ 50%. For the same molecule, the IC50 (at human LPA1 receptor; in experiment [2]) was ≤ 200 nM in each case.

On to `C[C@@H](OC(=O)Nc1cc(F)sc1-c1ccc(-c2ccc(C3(C(=O)O)CC3)cc2)cc1)c1ccc(Cl)cc1` [I-126, (R)-1-{4′-[3-({[1-(4-Chlorophenyl)ethoxy]carbonyl}amino)-5-fluorothiophen-2-yl]-[1,1′-biphenyl]-4-yl}cyclopropanecarboxylic acid], for which the responders at 10 mg/kg in experiment [1] is ≥ 50%. For the same molecule, the IC50 (at human LPA1 receptor; in experiment [2]) was ≤ 200 nM each time.

For `C[C@@H](OC(=O)Nc1cc(F)sc1-c1ccc(-c2ccc(C3(C(=O)O)CC3)cc2)cc1)c1ccc(F)cc1Cl` [I-152, (R)-1-{4′-[3-({[1-(2-Chloro-4-fluorophenyl)ethoxy]carbonyl}amino)-5-fluorothiophen-2-yl]-[1,1′-biphenyl]-4-yl}cyclopropanecarboxylic acid], the responders at 10 mg/kg in experiment [1] was ≥ 50%. Also, the IC50 (on human LPA1 receptor; in experiment [2]) was ≤ 200 nM each time.

Values taken from patent US10597375B2, “Halogen-substituted heterocyclic compound” (UBE INDUSTRIES, LTD., priority 2012, dated 2020).
